Drawing on ChEMBL document CHEMBL4402607, “Molecular Basis for Omapatrilat and Sampatrilat Binding to Neprilysin-Implications for Dual Inhibitor Design with Angiotensin-Converting Enzyme” (J Med Chem, 2020), this text covers IC50 and Ki for 4 molecules.

SMILES strings stand for the structures. Where only a bound is given, the exact number is not on record here.

Test [1] has as its target Neprilysin (Homo sapiens, UniProt P08473). Kind of test: Inhibition of NEP (unknown origin).
The target of test [2] is T1, Angiotensin-converting enzyme (Homo sapiens, UniProt P12821). Kind of test: Inhibition of human somatic ACE N-domain soluble form (1 to 629 residues) expressed in CHO cells using Z-FHL as substrate preincubated with enzyme followed by substrate addition by fluorescence based assay.
Test [3] concerns the target T1, Angiotensin-converting enzyme. Kind of test: Inhibition of human testis ACE C-domain lacking unique O-glycosylated region, transmembrane anchor and cytoplasmic tail expressed in CHO cells using Z-FHL as substrate by fluorescence based assay.
Test [4] shares this target. Kind of test: Inhibition of human ACE using MCA-RPPGFSAFK-Dnp-OH as substrate by fluorescence based analysis.
For test [5], the target named is T2, Neprilysin (Rattus norvegicus, UniProt P07861).
T2 sequence (P07861 whole entry): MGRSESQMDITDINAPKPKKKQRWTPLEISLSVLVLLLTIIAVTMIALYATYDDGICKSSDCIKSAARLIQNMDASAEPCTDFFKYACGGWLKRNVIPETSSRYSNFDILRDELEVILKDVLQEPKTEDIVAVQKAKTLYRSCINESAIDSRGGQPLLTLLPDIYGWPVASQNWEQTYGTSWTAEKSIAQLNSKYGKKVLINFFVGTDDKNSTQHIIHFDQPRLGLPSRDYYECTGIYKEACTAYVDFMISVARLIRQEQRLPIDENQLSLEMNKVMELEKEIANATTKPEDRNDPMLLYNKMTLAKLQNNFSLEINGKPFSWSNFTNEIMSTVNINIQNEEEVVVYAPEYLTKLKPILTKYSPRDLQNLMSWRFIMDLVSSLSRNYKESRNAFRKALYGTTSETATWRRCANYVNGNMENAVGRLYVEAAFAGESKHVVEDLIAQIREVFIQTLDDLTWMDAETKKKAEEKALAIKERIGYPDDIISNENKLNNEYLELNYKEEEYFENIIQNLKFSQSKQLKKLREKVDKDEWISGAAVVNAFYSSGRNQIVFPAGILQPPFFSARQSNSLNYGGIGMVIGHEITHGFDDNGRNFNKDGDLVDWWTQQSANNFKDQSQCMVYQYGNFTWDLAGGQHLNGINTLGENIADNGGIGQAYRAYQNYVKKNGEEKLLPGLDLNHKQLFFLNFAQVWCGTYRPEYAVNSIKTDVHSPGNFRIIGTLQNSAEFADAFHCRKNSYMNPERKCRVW
The test is described as follows: Inhibition of rat kidney NEP using glutaryl-Ala-Ala-beta-naphthylamide as substrate preincubated with enzyme for 15 mins followed by substrate addition.

Test [6] can be described thus: Inhibition of rabbit lung ACE using hippuryl-His-Leu as substrate preincubated with enzyme for 15 mins followed by substrate addition. Also noted: species or system Oryctolagus cuniculus.

T1 sequence (P12821 whole entry, the tested form may be a part): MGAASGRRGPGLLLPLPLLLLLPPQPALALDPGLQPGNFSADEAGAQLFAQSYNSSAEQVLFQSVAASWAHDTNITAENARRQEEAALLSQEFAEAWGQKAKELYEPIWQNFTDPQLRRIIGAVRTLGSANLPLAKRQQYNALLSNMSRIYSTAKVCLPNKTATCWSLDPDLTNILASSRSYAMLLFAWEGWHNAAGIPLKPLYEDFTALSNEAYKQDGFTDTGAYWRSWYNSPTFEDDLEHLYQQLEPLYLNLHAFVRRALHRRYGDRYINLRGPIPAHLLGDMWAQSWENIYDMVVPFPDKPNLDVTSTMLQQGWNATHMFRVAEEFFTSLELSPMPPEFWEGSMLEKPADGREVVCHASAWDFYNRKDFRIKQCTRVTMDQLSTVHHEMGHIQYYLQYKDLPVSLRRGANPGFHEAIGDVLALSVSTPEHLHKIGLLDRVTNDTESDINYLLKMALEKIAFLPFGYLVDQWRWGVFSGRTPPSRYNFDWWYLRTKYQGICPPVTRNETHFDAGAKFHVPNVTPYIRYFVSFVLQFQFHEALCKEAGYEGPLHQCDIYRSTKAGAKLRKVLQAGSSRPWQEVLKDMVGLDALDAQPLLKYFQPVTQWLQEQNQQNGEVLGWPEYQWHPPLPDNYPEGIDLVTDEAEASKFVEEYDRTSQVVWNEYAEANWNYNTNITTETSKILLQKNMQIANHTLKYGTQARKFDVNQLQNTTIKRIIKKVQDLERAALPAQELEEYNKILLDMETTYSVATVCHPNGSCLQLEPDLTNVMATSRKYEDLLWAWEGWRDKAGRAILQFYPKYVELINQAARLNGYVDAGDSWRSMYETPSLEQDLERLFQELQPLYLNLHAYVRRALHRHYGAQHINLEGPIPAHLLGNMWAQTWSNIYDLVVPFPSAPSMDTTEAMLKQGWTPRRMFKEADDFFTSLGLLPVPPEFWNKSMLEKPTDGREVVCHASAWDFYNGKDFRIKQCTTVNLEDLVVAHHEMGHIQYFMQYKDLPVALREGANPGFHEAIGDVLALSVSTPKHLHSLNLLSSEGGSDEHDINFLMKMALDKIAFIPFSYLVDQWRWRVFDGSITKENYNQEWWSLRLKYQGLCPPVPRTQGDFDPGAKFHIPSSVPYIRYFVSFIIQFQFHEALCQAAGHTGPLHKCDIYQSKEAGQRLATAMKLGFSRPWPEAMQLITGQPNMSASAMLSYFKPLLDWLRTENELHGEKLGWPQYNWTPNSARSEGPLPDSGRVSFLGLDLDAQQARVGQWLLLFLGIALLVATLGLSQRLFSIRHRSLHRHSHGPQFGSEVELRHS
Neprilysin (Homo sapiens, UniProt P08473), sequence (P08473 whole entry, the tested form may be a part): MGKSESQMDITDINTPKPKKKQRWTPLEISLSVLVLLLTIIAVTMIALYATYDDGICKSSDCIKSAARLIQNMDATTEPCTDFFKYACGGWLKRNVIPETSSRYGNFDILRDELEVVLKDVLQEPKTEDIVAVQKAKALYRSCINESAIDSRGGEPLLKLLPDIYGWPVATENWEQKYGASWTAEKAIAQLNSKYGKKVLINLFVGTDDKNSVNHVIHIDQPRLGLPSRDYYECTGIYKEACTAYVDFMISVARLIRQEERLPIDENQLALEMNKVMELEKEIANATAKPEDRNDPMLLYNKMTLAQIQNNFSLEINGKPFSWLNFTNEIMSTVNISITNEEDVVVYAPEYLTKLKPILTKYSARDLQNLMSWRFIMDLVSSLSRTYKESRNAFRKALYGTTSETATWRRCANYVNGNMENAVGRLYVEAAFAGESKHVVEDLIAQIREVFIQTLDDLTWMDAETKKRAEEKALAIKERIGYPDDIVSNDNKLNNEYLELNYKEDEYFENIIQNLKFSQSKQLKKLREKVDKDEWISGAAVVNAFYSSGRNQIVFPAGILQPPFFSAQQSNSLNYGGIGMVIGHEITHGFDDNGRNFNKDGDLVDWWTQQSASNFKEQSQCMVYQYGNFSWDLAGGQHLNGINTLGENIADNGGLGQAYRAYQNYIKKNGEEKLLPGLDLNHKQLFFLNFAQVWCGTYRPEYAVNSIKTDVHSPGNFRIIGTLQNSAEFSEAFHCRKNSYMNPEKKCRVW

As a reminder, the IC50 is the point on the concentration scale where inhibition reaches its midpoint. As a reminder, the Ki is the equilibrium dissociation constant of an inhibitor or competing ligand from its target. Lower therefore signals a stronger hold on the target. As for `CS(=O)(=O)N[C@@H](CCCCN)C(=O)NC[C@H](CC1(C(=O)N[C@@H](Cc2ccc(O)cc2)C(=O)O)CCCC1)C(=O)O`, at Neprilysin [1], the IC50 is 8 nM. Also, the Ki in test [2] came to 172 nM; in test [3], 13.8 nM.
Take `CC(=O)N[C@@H](CC(=O)O)C(=O)NC[C@H](CC1(C(=O)N[C@@H](Cc2ccc(O)cc2)C(=O)O)CCCC1)C(=O)O`: the Ki in test [2] is 10600 nM; in test [3] it was 7400 nM.
`C[C@H](C[C@@H](Cc1ccc(-c2ccccc2)cc1)NC(=O)CCC(=O)O)C(=O)O` [LBQ-657]: in test [4], the IC50 is above 100000 nM.
`CC(C)C[C@H](NP(=O)(O)O[C@@H]1O[C@@H](C)[C@H](O)[C@@H](O)[C@H]1O)C(=O)N[C@@H](Cc1c[nH]c2ccccc12)C(=O)O` [PHOSPHORAMIDON]: the IC50 at Neprilysin [5] was 34 nM; in test [6], 78000 nM.
